Assay results taken from patent US9227972B2, “Aliphatic spirolactam CGRP receptor antagonists” (Merck Sharp & Dohme Corp., priority 2012, dated 2016).

What was measured:
[1] = biological target: T1, recombinant human CL receptor/RAMP1 (Homo sapiens, UniProt O60894+Q16602); experiment: Recombinant receptor functional assay (cAMP, HTRF); format: cell-based; details: HEK 293 cells, 1.2 nM human α-CGRP, cAMP determination
T1 construct: expressed in transfected cells
Procedure: (§1) RECOMBINANT RECEPTOR: Human CL receptor (Genbank accession number L76380) was subcloned into the expression vector pIREShyg2 (BD Biosciences Clontech) as a 5′NheI and 3′ PmeI fragment. Human RAMP1 (Genbank accession number AJ001014) was subcloned into the expression vector pIRESpuro2 (BD Biosciences Clontech) as a 5′NheI and 3′NotI fragment. HEK 293 cells (human embryonic kidney cells; ATCC #CRL-1573) were cultured in DMEM with 4.5 g/L glucose, 1 mM sodium pyruvate and 2 mM glutamine supplemented with 10% fetal bovine serum (FBS), 100 units/mL penicillin and 100 μg/mL streptomycin, and maintained at 37° C. and 95% humidity. Cells were subcultured by treatment with 0.25% trypsin with 0.1% EDTA in HBSS. Stable cell line generation was accomplished by co-transfecting 10 μg of DNA with 30 μg Lipofectamine 2000 (Invitrogen) in 75 cm^2 flasks. CL receptor and RAMP1 expression constructs were co-transfected in equal amounts. […]
RECOMBINANT RECEPTOR FUNCTIONAL ASSAY: Cells were resuspended in DMEM/F12 (Hyclone) supplemented with 1 g/L BSA and 300 μM isobutyl-methylxanthine. […] Raw data were transformed into concentration of cAMP using a standard curve then dose response curves were plotted and inflection point (IP) values were determined.

[2] = biological target: T1, recombinant human CL receptor/RAMP1; experiment: Recombinant receptor binding assay (125I-hCGRP); details: membranes of HEK 293 cells expressing human CL receptor/RAMP1, 10 pM 125I-hCGRP, 3 h room temperature
Procedure: as §1
[formula] Where Y is observed CPM bound, Ymax is total bound counts, Ymin is non specific bound counts, (Ymax−Ymin) is specific bound counts, % Imax is the maximum percent inhibition, % I min is the minimum percent inhibition, radiolabel is the probe, and the Kd is the apparent dissociation constant for the radioligand for the receptor as determined by hot saturation experiments.

T1 sequence (Q16602 23-461): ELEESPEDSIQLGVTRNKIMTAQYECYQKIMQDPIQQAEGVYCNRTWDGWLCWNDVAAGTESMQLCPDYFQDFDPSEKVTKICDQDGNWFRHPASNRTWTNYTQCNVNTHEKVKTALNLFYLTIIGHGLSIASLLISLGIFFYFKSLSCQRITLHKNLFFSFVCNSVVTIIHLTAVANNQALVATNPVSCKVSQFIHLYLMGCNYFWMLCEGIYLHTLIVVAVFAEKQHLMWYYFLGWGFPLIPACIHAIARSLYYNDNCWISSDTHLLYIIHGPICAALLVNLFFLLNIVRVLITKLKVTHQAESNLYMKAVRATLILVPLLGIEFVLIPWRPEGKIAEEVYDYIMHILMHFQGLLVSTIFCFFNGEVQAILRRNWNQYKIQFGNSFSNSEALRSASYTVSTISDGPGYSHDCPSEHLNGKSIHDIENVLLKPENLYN
T1 sequence (O60894 27-148): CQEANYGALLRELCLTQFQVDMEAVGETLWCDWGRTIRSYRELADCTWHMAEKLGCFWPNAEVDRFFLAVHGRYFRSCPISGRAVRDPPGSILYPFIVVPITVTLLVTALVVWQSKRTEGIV

Compound	IC50 [1] [nM]	Ki [2] [nM]
C[C@@H]1[C@H](c2ccccc2)C[C@H](NS(=O)(=O)c2cnc3c(c2)C[C@@]2(C3)C(=O)Nc3ncccc32)C(=O)N1CC(F)(F)F [Example 3, (6S)—N-[(3S,5S,6R)-6-Methyl-2-oxo-5-phenyl-1-(2,2,2-trifluoroethyl)piperidin-3-yl]-2′-oxo-1′,2′,5,7-tetrahydrospiro[cyclopenta[b]pyridine-6,3′-pyrrolo[2,3-b]pyridine]-3-sulfonamide]	3720	
C[C@@H]1[C@H](c2ccccc2)C[C@H](NCC(F)(F)c2cnc3c(c2)C[C@@]2(C3)C(=O)Nc3ncccc32)C(=O)N1CC(F)(F)F [Example 2, (6S)-3-(1,1-Difluoro-2-(((3S,5S,6R)-6-methyl-2-oxo-5-phenyl-1-(2,2,2-trifluoroethyl)piperidin-3-yl)amino)ethyl)-5,7-dihydrospiro[cyclopenta[b]pyridine-6,3′-pyrrolo[2,3-b]pyridin]-2′(1′H)-one]		409
CC1C(c2cc(F)cc(F)c2F)CC(CC=Cc2cnc3c(c2)C[C@@]2(C3)C(=O)Nc3ncccc32)C(=O)N1CC(F)(F)F (stereo partly drawn) [Example 1, (3′S)-3-(3-(6-Methyl-2-oxo-1-(2,2,2-trifluoroethyl)-5-(2,3,5-trifluorophenyl)piperidin-3-yl)prop-1-en-1-yl)-5,7-dihydrospiro[cyclopenta[b]pyridine-6,3′-pyrrolo[2,3-b]pyridin]-2′(1′H)-one]	7.2	
